Measured values as given in PubChem BioAssay (NCI).
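Each compound was tested at five concentrations against cells in 96-well plates for 48 hours. GI50 = concentration required for 50% inhibition of growth. TGI is the concentration that stops growth completely.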

Legend:
Test in all cases: NCI anticancer screen, dose series, 48 h
RXF 393 renal = system: RXF 393 renal
TK-10 renal = system: TK-10 renal
A549 NSCLC = system: A549 NSCLC
EKVX NSCLC = system: EKVX NSCLC
UACC-257 melanoma = system: UACC-257 melanoma
OVCAR-3 ovarian = system: OVCAR-3 ovarian
SNB-75 CNS = system: SNB-75 CNS
MALME-3M melanoma = system: MALME-3M melanoma
M14 melanoma = system: M14 melanoma
T-47D breast = system: T-47D breast

## O=C(CNc1ncco1)Nc1ccc(S(=O)(=O)c2ccc(NC(=O)CNc3ncco3)cc2)cc1
RXF 393 renal
  GI50: 1.42 µM
  TGI: 2.86 µM
TK-10 renal
  GI50: 11.7 µM
  TGI: 25 µM
A549 NSCLC
  GI50: 2.2 µM
  TGI: 6.42 µM
EKVX NSCLC
  GI50: 2.23 µM
  TGI: 9 µM
UACC-257 melanoma
  GI50: 1.85 µM
  TGI: 4.86 µM
OVCAR-3 ovarian
  GI50: 1.63 µM
  TGI: 3.71 µM
SNB-75 CNS
  GI50: 6.04 µM
  TGI: 20.7 µM
MALME-3M melanoma
  GI50: 2.12 µM
  TGI: 4.56 µM
M14 melanoma
  GI50: 1.7 µM
  TGI: 3.55 µM
T-47D breast
  GI50: 1.87 µM
  TGI: 4.38 µM

## COc1ccc(C(=O)COc2cccc(/C=C3\CSc4ccc(Cl)cc4C3=O)c2)cc1
RXF 393 renal
  GI50: 1.14 µM
  TGI: 7.1 µM
TK-10 renal
  GI50: 19.7 µM
  TGI: 41.4 µM
A549 NSCLC
  GI50: 64 µM
  TGI: > 100 µM
EKVX NSCLC
  GI50: 15.3 µM
  TGI: 52 µM
UACC-257 melanoma
  GI50: 12.6 µM
  TGI: 33.4 µM
OVCAR-3 ovarian
  GI50: 8.86 µM
  TGI: 21.2 µM
SNB-75 CNS
  GI50: 16.5 µM
  TGI: 37.2 µM
MALME-3M melanoma
  GI50: 11.6 µM
  TGI: 32 µM
M14 melanoma
  GI50: 13.4 µM
  TGI: 31.6 µM
T-47D breast
  GI50: 5.4 µM
  TGI: 28.9 µM

## COc1cc(NCc2ccccc2O)c2ncccc2c1
RXF 393 renal
  GI50: 18.5 µM
  TGI: 68.8 µM
TK-10 renal
  GI50: 26.5 µM
  TGI: > 100 µM
A549 NSCLC
  GI50: 49.1 µM
  TGI: > 100 µM
EKVX NSCLC
  GI50: 19 µM
  TGI: 80.8 µM
UACC-257 melanoma
  GI50: 19.5 µM
  TGI: 70.7 µM
OVCAR-3 ovarian
  GI50: 20.6 µM
  TGI: 84.5 µM
SNB-75 CNS
  GI50: 8.52 µM
  TGI: 59.3 µM
MALME-3M melanoma
  GI50: 14 µM
  TGI: 44.4 µM
M14 melanoma
  GI50: 19 µM
  TGI: 53.6 µM
T-47D breast
  GI50: 20.4 µM
  TGI: > 100 µM

## COC1C(O)C(C)OC(OC2CC3CCC4C(CCC5(C)C(C6=CC(=O)OC6)CCC45O)C3(O)C(OC(C)=O)C2)C1O (stereo not given)
RXF 393 renal
  TGI: 1.32 µM
TK-10 renal
  TGI: 6.8 µM
A549 NSCLC
  TGI: 1.41 µM
EKVX NSCLC
  TGI: 3.14 µM
UACC-257 melanoma
  TGI: 16.5 µM
OVCAR-3 ovarian
  TGI: 3.38 µM
SNB-75 CNS
  TGI: > 31.2 µM
MALME-3M melanoma
  TGI: 3.74 µM
M14 melanoma
  TGI: 5.5 µM
T-47D breast
  TGI: 12.7 µM

## O=S(=O)(O)/C(=C\c1ccccc1)c1ccccc1 (tested in a mixture with another compound)
RXF 393 renal
  TGI: > 100 µM
TK-10 renal
  TGI: > 100 µM
A549 NSCLC
  TGI: > 100 µM
EKVX NSCLC
  TGI: > 100 µM
UACC-257 melanoma
  TGI: > 100 µM
OVCAR-3 ovarian
  TGI: > 100 µM
SNB-75 CNS
  TGI: > 100 µM
MALME-3M melanoma
  TGI: > 100 µM
M14 melanoma
  TGI: > 100 µM
T-47D breast
  TGI: > 100 µM

## CCOc1ccc2ccc3cccnc3c2n1
RXF 393 renal
  TGI: > 100 µM
TK-10 renal
  TGI: > 100 µM
A549 NSCLC
  TGI: > 100 µM
EKVX NSCLC
  TGI: > 100 µM
UACC-257 melanoma
  TGI: 85.1 µM
OVCAR-3 ovarian
  TGI: 58.4 µM
SNB-75 CNS
  TGI: > 100 µM
MALME-3M melanoma
  TGI: > 100 µM
M14 melanoma
  TGI: > 100 µM
T-47D breast
  TGI: > 100 µM

## CCCCCCC#CC#Cc1cccc(=O)o1
RXF 393 renal
  GI50: 1.72 µM
  TGI: 4.65 µM
TK-10 renal
  GI50: 2.67 µM
  TGI: 8.23 µM
A549 NSCLC
  GI50: 9.24 µM
  TGI: 30.7 µM
EKVX NSCLC
  GI50: 13.8 µM
  TGI: 31.7 µM
UACC-257 melanoma
  GI50: 2.21 µM
  TGI: 7.87 µM
OVCAR-3 ovarian
  GI50: 2.04 µM
  TGI: 4.8 µM
SNB-75 CNS
  GI50: 4.34 µM
  TGI: 37.3 µM
MALME-3M melanoma
  GI50: 1.56 µM
  TGI: 3.79 µM
M14 melanoma
  GI50: 0.878 µM
  TGI: 2.8 µM
T-47D breast
  GI50: 16.6 µM
  TGI: 57.2 µM

## NC(Cc1ccnnc1)C(=O)O (stereo not given)
RXF 393 renal
  TGI: > 100 µM
TK-10 renal
  TGI: > 100 µM
A549 NSCLC
  TGI: > 100 µM
EKVX NSCLC
  TGI: > 100 µM
UACC-257 melanoma
  TGI: > 100 µM
OVCAR-3 ovarian
  TGI: > 100 µM
SNB-75 CNS
  TGI: > 100 µM
MALME-3M melanoma
  TGI: > 100 µM
M14 melanoma
  TGI: > 100 µM
T-47D breast
  TGI: > 100 µM

## O=C(Nc1ccccc1O)c1ccc(CNC(=O)c2sccc2Nc2ccnc(C(F)(F)F)c2)cc1
RXF 393 renal
  GI50: 3.28 µM
  TGI: 15.6 µM
TK-10 renal
  GI50: 4.76 µM
  TGI: 22.7 µM
A549 NSCLC
  GI50: 8.68 µM
  TGI: 28.2 µM
EKVX NSCLC
  GI50: 8.77 µM
  TGI: 57.7 µM
UACC-257 melanoma
  GI50: 4.61 µM
  TGI: 38.1 µM
OVCAR-3 ovarian
  GI50: 7.48 µM
  TGI: 21.6 µM
SNB-75 CNS
  GI50: 4.96 µM
  TGI: 44.5 µM
MALME-3M melanoma
  GI50: 2.5 µM
  TGI: 21.5 µM
M14 melanoma
  GI50: 7.87 µM
  TGI: 27.8 µM
T-47D breast
  GI50: 3.45 µM
  TGI: 29.9 µM

## COc1ccc(/C=C(/C)[N+](=O)[O-])cc1
RXF 393 renal
  TGI: 3.16 µM
TK-10 renal
  TGI: 3.64 µM
A549 NSCLC
  TGI: 18.2 µM
EKVX NSCLC
  TGI: 4.91 µM
UACC-257 melanoma
  TGI: 3.08 µM
OVCAR-3 ovarian
  TGI: 3.26 µM
SNB-75 CNS
  TGI: 3.4 µM
MALME-3M melanoma
  TGI: 4.59 µM
M14 melanoma
  TGI: 7.92 µM
T-47D breast
  TGI: > 100 µM

## CCc1c(O)c2c(c(O)c1C(C)=O)C(=O)c1c(cc(O)c(C(=O)O)c1C(=O)O)C2=O
RXF 393 renal
  TGI: > 100 µM
TK-10 renal
  TGI: > 100 µM
A549 NSCLC
  TGI: > 100 µM
EKVX NSCLC
  TGI: > 100 µM
UACC-257 melanoma
  TGI: > 100 µM
OVCAR-3 ovarian
  TGI: > 100 µM
SNB-75 CNS
  TGI: > 100 µM
MALME-3M melanoma
  TGI: > 100 µM
M14 melanoma
  TGI: > 100 µM
T-47D breast
  TGI: > 100 µM

## O=C(O)c1cc(Cc2ccc(O)c(C(=O)O)c2)ccc1O (tested in a mixture with another compound)
RXF 393 renal
  GI50: 0.25 µM
  TGI: 1.37 µM
TK-10 renal
  GI50: 6.17 µM
  TGI: 20.7 µM
A549 NSCLC
  GI50: 9.82 µM
  TGI: 28 µM
EKVX NSCLC
  GI50: 4.82 µM
  TGI: 18 µM
UACC-257 melanoma
  GI50: 3.34 µM
  TGI: 7.77 µM
OVCAR-3 ovarian
  GI50: 9.75 µM
  TGI: 22.3 µM
SNB-75 CNS
  GI50: 3.32 µM
  TGI: 22.4 µM
MALME-3M melanoma
  GI50: 8.55 µM
  TGI: 23.9 µM
M14 melanoma
  GI50: 5.28 µM
  TGI: 21.8 µM
T-47D breast
  GI50: 2.67 µM
  TGI: 13.2 µM

## CC(C)(C)[Si](C)(C)OCC1C=CC(n2cnc3c(N)ncnc32)O1 (stereo not given)
RXF 393 renal
  TGI: 73 µM
TK-10 renal
  TGI: > 100 µM
A549 NSCLC
  TGI: > 100 µM
EKVX NSCLC
  TGI: > 100 µM
UACC-257 melanoma
  TGI: 98.4 µM
OVCAR-3 ovarian
  TGI: > 67.9 µM
SNB-75 CNS
  TGI: > 81 µM
MALME-3M melanoma
  TGI: > 100 µM
M14 melanoma
  TGI: 66.9 µM
T-47D breast
  TGI: > 100 µM

## CN1CCN(c2ccc(NC3=C(Cl)C(=O)c4ncccc4C3=O)cc2C#N)CC1
RXF 393 renal
  GI50: 1.4 µM
  TGI: 2.73 µM
TK-10 renal
  GI50: 2.09 µM
  TGI: 4.24 µM
A549 NSCLC
  GI50: 17.4 µM
  TGI: 33.7 µM
EKVX NSCLC
  GI50: 2.78 µM
  TGI: 8.72 µM
UACC-257 melanoma
  GI50: 1.73 µM
  TGI: 3.29 µM
OVCAR-3 ovarian
  GI50: 0.229 µM
  TGI: 1 µM
SNB-75 CNS
  GI50: 11.7 µM
  TGI: 24.8 µM
MALME-3M melanoma
  GI50: 1.47 µM
  TGI: 2.81 µM
M14 melanoma
  GI50: 1.74 µM
  TGI: 3.57 µM
T-47D breast
  GI50: 1.76 µM
  TGI: 5.26 µM

## O=C(NNS(=O)(=O)c1ccc(F)cc1)c1cccnc1Nc1ccc(Cl)cc1Cl
RXF 393 renal
  GI50: 11.4 µM
  TGI: 27.6 µM
TK-10 renal
  GI50: 33.8 µM
  TGI: > 100 µM
A549 NSCLC
  GI50: 17.2 µM
  TGI: 41 µM
EKVX NSCLC
  GI50: 29.5 µM
  TGI: > 100 µM
UACC-257 melanoma
  GI50: 11.8 µM
  TGI: 51.9 µM
OVCAR-3 ovarian
  GI50: 29.7 µM
  TGI: 94.5 µM
SNB-75 CNS
  GI50: 25.5 µM
  TGI: > 100 µM
MALME-3M melanoma
  GI50: 34.7 µM
  TGI: > 100 µM
M14 melanoma
  GI50: 46.5 µM
  TGI: > 100 µM
T-47D breast
  GI50: 18.7 µM
  TGI: 98.1 µM

## CC(=O)OC1CCC2(C)C(=CCC3C4CCC5(OC6CC(C)CN(C(C)=O)C6C5C)C(C)=C4C(=O)C32)C1 (stereo not given)
RXF 393 renal
  TGI: 32.2 µM
TK-10 renal
  TGI: 56.7 µM
A549 NSCLC
  TGI: 47.7 µM
EKVX NSCLC
  TGI: 27.5 µM
UACC-257 melanoma
  TGI: 27.3 µM
OVCAR-3 ovarian
  TGI: 72.6 µM
SNB-75 CNS
  TGI: 41.5 µM
MALME-3M melanoma
  TGI: 29.9 µM
M14 melanoma
  TGI: 28.9 µM
T-47D breast
  TGI: 49 µM

## Cc1cc(C)c2c(SCc3ccc(Cl)cc3Cl)nc(N)nc2n1
RXF 393 renal
  TGI: > 100 µM
TK-10 renal
  TGI: 47.5 µM
A549 NSCLC
  TGI: > 100 µM
EKVX NSCLC
  TGI: > 100 µM
UACC-257 melanoma
  TGI: 38.2 µM
OVCAR-3 ovarian
  TGI: 76.2 µM
SNB-75 CNS
  TGI: > 100 µM
MALME-3M melanoma
  TGI: > 100 µM
M14 melanoma
  TGI: > 100 µM
T-47D breast
  TGI: 47 µM
